Among the data in PubChem BioAssay (NCI) are GI50 and TGI values, retold here.

Some test systems named below: HOP-62 NSCLC; SK-MEL-28 melanoma; UO-31 renal; BT-549 breast; T-47D breast; NCI-H23 lung; PC-3 prostate; EKVX NSCLC.
What all share (assay): inhibition of tumour cell growth, NCI panel, 48 h

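Interpolation was linear, between the two tested concentrations surrounding the appropriate level; five concentrations were tested over 48 hours in 96-well plates. The concentration for 50% growth inhibition is given as GI50. TGI: concentration producing complete growth inhibition.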

With `N#Cc1cccc(C(=O)Nc2cccc(NC(=O)c3cccc(C#N)c3)c2)c1`, the GI50 with HOP-62 NSCLC was 33500 nM; with SK-MEL-28 melanoma, more than 100000 nM; with UO-31 renal, more than 100000 nM; in the assay on BT-549 breast, more than 100 µM; in the assay on T-47D breast, more than 100 µM; with NCI-H23 lung, 89000 nM. Also, the values for the GI50 in the assay on PC-3 prostate and with EKVX NSCLC were 77600 nM and more than 100 µM, respectively. Further, the TGI in the assay on HOP-62 NSCLC was 74 µM; in the assay with SK-MEL-28 melanoma, more than 100 µM; in the assay on UO-31 renal it was more than 100 µM; with BT-549 breast, more than 100 µM; in the assay with T-47D breast, more than 100 µM; in the assay on NCI-H23 lung, more than 100 µM. The TGI in the assay with PC-3 prostate and with EKVX NSCLC was more than 100 µM each time.
For the molecule `Cc1ccc(/C=C2/SC(Nc3nc(-c4nc(NC5=NC(=O)/C(=C\c6ccc(C)cc6)S5)sc4C)c(C)s3)=NC2=O)cc1`, the GI50 was 5 nM with HOP-62 NSCLC; 35300 nM in the assay on SK-MEL-28 melanoma; 6030 nM in the assay on UO-31 renal; 1.21 µM in the assay on BT-549 breast; 22.3 µM with T-47D breast; 895 nM in the assay with NCI-H23 lung. Further, the GI50 in the assay on PC-3 prostate is 757 nM; in the assay with EKVX NSCLC it was 0.0339 µM. Also, the TGI with HOP-62 NSCLC was 2.65 µM; in the assay with SK-MEL-28 melanoma, more than 50 µM; in the assay on UO-31 renal, more than 50 µM; with BT-549 breast it was 31.9 µM; in the assay on T-47D breast it was more than 50 µM; with NCI-H23 lung, 8.46 µM. Further, the TGI in the assay on PC-3 prostate is more than 50 µM; in the assay with EKVX NSCLC, 0.15 µM.
In the case of `O=C(CCCCCCSc1nc(-c2ccccc2)cc(-c2ccccc2)n1)NO`, the GI50 in the assay with HOP-62 NSCLC is 1930 nM; in the assay with SK-MEL-28 melanoma, 2850 nM; in the assay on UO-31 renal, 1090 nM; in the assay on BT-549 breast, 3.16 µM; with T-47D breast it was 1.86 µM; in the assay on NCI-H23 lung it was 1970 nM. Further, the values for the GI50 in the assay with PC-3 prostate and with EKVX NSCLC were 2240 nM and 3.96 µM, respectively. Moreover, the TGI was found to be 8.06 µM in the assay with HOP-62 NSCLC; 12.4 µM with SK-MEL-28 melanoma; 3.85 µM with UO-31 renal; 18.4 µM with BT-549 breast; 8.21 µM in the assay on T-47D breast; 5.55 µM in the assay with NCI-H23 lung. The TGI with PC-3 prostate turned out to be 13.4 µM; with EKVX NSCLC, 17.2 µM.
As to `N=c1c2c(-c3ccccc3)c(-c3ccccc3)n(Cc3ccccc3)c2ncn1CCCO`, the GI50 in the assay with HOP-62 NSCLC is 1030 nM; in the assay with SK-MEL-28 melanoma, 1440 nM; with UO-31 renal, 2240 nM; in the assay on BT-549 breast, 7.81 µM; with T-47D breast it was 3.13 µM; with NCI-H23 lung, 4320 nM. Also, the GI50 with PC-3 prostate was 1620 nM; with EKVX NSCLC it was 4.4 µM. Besides, the TGI turned out to be 7.05 µM with HOP-62 NSCLC; 3.4 µM with SK-MEL-28 melanoma; 16.5 µM in the assay with UO-31 renal; 21.2 µM in the assay on BT-549 breast; 18.1 µM in the assay on T-47D breast; 24.3 µM in the assay on NCI-H23 lung. The TGI in the assay with PC-3 prostate is 12.2 µM; with EKVX NSCLC, 21.3 µM.
Take `Cc1ccc2c(c1C)-c1c(ccc(C)c1C)C(=O)C2=O`: the TGI in the assay with HOP-62 NSCLC amounted to 9.32 µM; with SK-MEL-28 melanoma it was 2.83 µM; in the assay on UO-31 renal, 4.36 µM; with BT-549 breast, 1.06 µM; with T-47D breast, 44.3 µM; in the assay with NCI-H23 lung it was 2.81 µM. For the same molecule, the results for the TGI with PC-3 prostate and with EKVX NSCLC were 7.3 µM and 6.54 µM, respectively.
`COc1ccc(C(=O)/C=C/c2c(C(F)(F)F)nc3sccn23)cc1OC`: the GI50 with HOP-62 NSCLC was 6000 nM; in the assay with SK-MEL-28 melanoma, 8480 nM; in the assay on UO-31 renal it was 8470 nM; in the assay with BT-549 breast, 3.25 µM; in the assay with T-47D breast, 2.9 µM; in the assay with NCI-H23 lung, 2780 nM. In addition, the figures for the GI50 in the assay on PC-3 prostate and with EKVX NSCLC were 5390 nM and 4.43 µM, respectively. For the same molecule, the TGI is 43 µM with HOP-62 NSCLC; more than 100 µM in the assay on SK-MEL-28 melanoma; more than 100 µM in the assay on UO-31 renal; more than 100 µM in the assay with BT-549 breast; 40.7 µM with T-47D breast; 27.9 µM in the assay on NCI-H23 lung. The TGI in the assay on PC-3 prostate and in the assay on EKVX NSCLC was more than 100 µM throughout.
Turning to `c1cc(CCN2CCCCC2)ccn1`, the TGI with HOP-62 NSCLC, with SK-MEL-28 melanoma, in the assay with UO-31 renal, with BT-549 breast, with T-47D breast and in the assay with NCI-H23 lung was more than 100 µM each time. Also, the TGI in the assay with PC-3 prostate and in the assay on EKVX NSCLC was more than 100 µM in each case.
As for `NC(=O)c1oc([N+](=O)[O-])c(-c2ccccc2)c1-c1ccccc1`, the TGI was more than 100 µM in the assay on HOP-62 NSCLC; more than 100 µM with SK-MEL-28 melanoma; 52.2 µM in the assay with UO-31 renal; 40.6 µM in the assay on BT-549 breast; 50.3 µM in the assay on T-47D breast; 35 µM in the assay on NCI-H23 lung. For the same molecule, the TGI was found to be 47.9 µM in the assay with PC-3 prostate and 48.4 µM with EKVX NSCLC.
In the case of `CN(CC(=O)O)c1ccc(/C=C/c2ccnc3ccccc23)cc1`, the TGI is more than 100 µM in the assay with HOP-62 NSCLC; more than 100 µM in the assay with SK-MEL-28 melanoma; 54 µM in the assay with UO-31 renal; 70.4 µM in the assay on BT-549 breast; more than 100 µM in the assay with T-47D breast; more than 100 µM with NCI-H23 lung. The values for the TGI in the assay on PC-3 prostate and in the assay on EKVX NSCLC were more than 100 µM and 30.8 µM, respectively.
Consider `COc1ccn2c(C(C)=O)cc(C(=O)c3ccc4c(c3)Sc3ccccc3N4)c2c1`, for which the GI50 in the assay with HOP-62 NSCLC is 136 nM; in the assay with SK-MEL-28 melanoma, 884 nM; with UO-31 renal, 476 nM; in the assay on BT-549 breast, 0.134 µM; in the assay with T-47D breast, 44.7 µM; with NCI-H23 lung, 136 nM. In addition, the figures for the GI50 in the assay with PC-3 prostate and in the assay on EKVX NSCLC were 129 nM and 0.183 µM, respectively. For the same molecule, the TGI with HOP-62 NSCLC, in the assay on SK-MEL-28 melanoma, in the assay with UO-31 renal, in the assay on BT-549 breast, in the assay with T-47D breast and in the assay with NCI-H23 lung was more than 100 µM each time. Also, the TGI in the assay with PC-3 prostate and in the assay with EKVX NSCLC was more than 100 µM in each case.
Turning to `C=C1CC2(C[C@@H](c3ccccc3)O[C@@H](c3ccccc3)C2)OC1=O` (stereo partly specified), the TGI came to 28.1 µM in the assay with HOP-62 NSCLC; 3.83 µM in the assay with SK-MEL-28 melanoma; 18.4 µM in the assay on UO-31 renal; 4.24 µM in the assay on BT-549 breast; 3.68 µM in the assay on T-47D breast; 7.72 µM in the assay on NCI-H23 lung. Further, the TGI was 14.5 µM in the assay with PC-3 prostate and 25.7 µM in the assay on EKVX NSCLC.
